The values below come from patent publication US20110288116A1, “IAP INHIBITORS” (TETRALOGIC PHARMACEUITCAL CORPORATION, priority 2008, published 2011).

What is called Kd is the equilibrium constant for the complex coming apart. Low readings indicate a tighter complex, high ones a looser complex.

In one assay the target is T1, XIAP BIR-3 (Homo sapiens, UniProt P98170).
T1 construct: 40 nM of the BIR3 for 15 min at RT
Briefly: Fluorescence polarization binding to XIAP BIR-3 (competition with AbuRPF-K(5-Fam)-NH2). The conditions noted are these: XIAP BIR-3 (default where cell does not indicate otherwise); reported as range class. The procedure:
(§1) The binding affinities of the compounds are reported as a Kd value. Briefly, various concentrations of test peptides were mixed with 5 nM of the fluorescently labeled peptide (i.e., a mutated N-terminal Smac peptide—AbuRPF-K(5-Fam)-NH2) and 40 nM of the BIR3 for 15 min at RT in […] of 0.1M Potassium Phosphate buffer, pH 7.5 containing […] bovine g-globulin. Following incubation, the polarization values (mP) were measured on a Victor2V (available from PerkinElmer Life Sciences) using a 485 nm excitation filter and a 520 nm emission filter. The reported Kd values are supplied as ranges (A=<0.1 μM, B=0.1 μM to C=>1 μM to 10 μM, D=>10 μM) and, unless otherwise indicated, are the Kd for XIAP BIR-3.
(Polarisation of emitted light reports the rotation of a fluorescent probe.)

For a further assay, the target named is T2, cIAP-1 BIR-3 (Homo sapiens, UniProt Q13490).
T2 construct: "cIAP-1 BIR-3"
Briefly: Fluorescence polarization binding to cIAP-1 BIR-3 (competition with AbuRPF-K(5-Fam)-NH2). The conditions noted are these: cells marked (cIAP-1): cIAP-1 BIR-3; reported as range class. The procedure:
as §1

T1 sequence (P98170 241-356 limits assumed): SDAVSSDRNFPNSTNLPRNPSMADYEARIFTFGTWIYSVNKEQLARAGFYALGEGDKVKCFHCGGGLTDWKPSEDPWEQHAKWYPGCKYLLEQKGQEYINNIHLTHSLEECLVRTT
T2 sequence (Q13490 266-343 limits assumed): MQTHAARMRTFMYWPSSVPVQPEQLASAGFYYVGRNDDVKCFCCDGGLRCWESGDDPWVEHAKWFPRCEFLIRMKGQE

Consider `CN[C@@H](CO)C(=O)N[C@H](C(=O)N1CC[C@H](C)[C@H]1Cc1c[nH]c2cc(F)ccc12)[C@@H](C)OC` [LL], for which, at XIAP BIR-3, the Kd is greater than 10000 nM. The same measure, in the same setting: for `CN[C@@H](C)C(=O)N[C@H](C(=O)N1CC[C@H](OC)[C@H]1Cc1c[nH]c2cc(F)ccc12)[C@@H](C)OC` [L′] the value was greater than 10000 nM. In turn, `CCN[C@@H](C)C(=O)N[C@H](C(=O)N1CC[C@H](O)[C@H]1Cc1c[nH]c2ncccc12)[C@@H](C)OC` [CC] returned a Kd on cIAP-1 BIR-3 of less than 100 nM. Molecule `CC[C@H](NC)C(=O)N[C@H](C(=O)N1CC[C@H](OC)[C@H]1Cc1c(Cl)[nH]c2cc(F)ccc12)[C@@H](C)OC` [Q′] came in with a Kd on XIAP BIR-3 greater than 100 nM. On cIAP-1 BIR-3, `CN[C@@H](C)C(=O)N[C@@H](COC)C(=O)N1CC[C@@H](O)[C@H]1Cc1c(-c2ccc(F)cc2)[nH]c2ccccc12` [HHH] showed a Kd greater than 100 nM. Take `CN[C@@H](C)C(=O)N[C@H](C(=O)N1C[C@@H](O)C[C@H]1Cc1c[nH]c2ncccc12)[C@@H](C)OC` [Compound A, N-{1-[4-Hydroxy-2-(1H-pyrrolo[2,3-b]pyridin-3-ylmethyl)-pyrrolidine-1-carbonyl]-2-methoxy-propyl}-2-methylamino-propionamide]: on XIAP BIR-3, the Kd was less than 100 nM. `CN[C@@H](C)C(=O)N[C@H](C(=O)N1CC[C@@H](O)[C@H]1Cc1c(-c2ccc(F)cc2)[nH]c2ccccc12)C(C)C` [BBB]: the Kd at XIAP BIR-3 was less than 100 nM. For `CCN[C@@H](C)C(=O)N[C@H](C(=O)N1CCC[C@H]1Cc1c[nH]c2ncccc12)[C@@H](C)OC` [H], on XIAP BIR-3, the Kd is less than 100 nM.

For the molecule `CC[C@H](NC)C(=O)N[C@H](C(=O)N1CC[C@@H](O)[C@H]1Cc1c(-c2ccc(F)cc2)[nH]c2ccccc12)[C@@H](C)OC` [MMM], the Kd at cIAP-1 BIR-3 was less than 100 nM. `CC[C@H](NC)C(=O)N[C@H](C(=O)N1CC[C@@H](O)[C@H]1Cc1c[nH]c2ccccc12)[C@@H](C)O` [EE′] had a Kd on XIAP BIR-3 of less than 100 nM. In the case of `CC[C@H](NC)C(=O)N[C@H](C(=O)N1CC[C@H](O)[C@H]1Cc1c[nH]c2cc(F)ccc12)C(C)(C)C` [VV], at XIAP BIR-3, the equilibrium dissociation constant (Kd) was less than 100 nM. On XIAP BIR-3, `CN[C@@H](C)C(=O)N[C@H](C(=O)N1CC[C@@H](O)[C@H]1Cc1c[nH]c2ccccc12)[C@@H](C)OC` [II′] registered a Kd of less than 100 nM.

At XIAP BIR-3, `CN[C@@H](C)C(=O)N[C@H](C(=O)N1CC[C@H](O)[C@H]1Cc1c[nH]c2cc(F)ccc12)C(C)(C)C` [UU] registered a Kd of less than 100 nM. At XIAP BIR-3, `CN[C@@H](C)C(=O)N[C@H](C(=O)N1CC[C@H](O)[C@H]1Cc1cn(C)c2cc(F)ccc12)[C@@H](C)OC` [YY] showed a Kd of less than 100 nM.

On XIAP BIR-3, `CN[C@@H](C)C(=O)N[C@H](C(=O)N1CC[C@@H](O)[C@H]1Cc1c[nH]c2ccccc12)C1CCCCC1` [LL′, N-{1-Cyclohexyl-2-[3-hydroxy-2-(1H-indol-3-ylmethyl)-pyrrolidin-1-yl]-2-oxo-ethyl}-2-methylamino-propionamide] showed a Kd of less than 100 nM. Regarding `CN[C@@H](C)C(=O)N[C@H](C(=O)N1CCC[C@H]1Cc1cn(C)c2ncccc12)[C@@H](C)OC` [U], the Kd at XIAP BIR-3 was less than 100 nM. Still for that read-out and setting: for `CN[C@@H](C)C(=O)N[C@H](C(=O)N1CC[C@H](OC)[C@H]1Cc1cn(C)c2cc(F)ccc12)[C@@H](C)OC` [B′] the value was less than 100 nM. At XIAP BIR-3, `CN[C@@H](C)C(=O)N[C@H](C(=O)N1CC[C@H](OC)[C@H]1Cc1c[nH]c2cc(F)ccc12)C(C)(C)C` [H′] registered a Kd greater than 10000 nM. On XIAP BIR-3, `CC[C@H](NC)C(=O)N[C@H](C(=O)N1CC[C@@H](O)[C@H]1Cc1c[nH]c2ccccc12)[C@@H](C)OC` [HH′] gave a Kd of less than 100 nM. At XIAP BIR-3, `CN[C@@H](C)C(=O)N[C@H](C(=O)N1CC[C@H](C)[C@H]1Cc1c[nH]c2cc(F)ccc12)[C@@H](C)OC` [JJ, N-{1-{1-2-(6-fluoro-1H-indol-3-ylmethyl)-3-methyl-pyrrolidine-1-carbonyl]-2-methoxy-propyl}-2-methylamino-propionamide] had a Kd greater than 100 nM. `CC[C@H](NC)C(=O)N[C@H](C(=O)N1CC[C@H](OC)[C@H]1Cc1c(Cl)[nH]c2cc(F)ccc12)[C@@H](C)O` [O′]: at XIAP BIR-3, the Kd was greater than 100 nM. As for `CCN[C@@H](C)C(=O)N[C@H](C(=O)N1CCC[C@H]1Cc1c[nH]c2c1ccc[n+]2[O-])[C@@H](C)OC` [Q], the equilibrium dissociation constant (Kd) at XIAP BIR-3 was greater than 100 nM. `CCN[C@@H](C)C(=O)N[C@H](C(=O)N1CC[C@H](C)[C@H]1Cc1c[nH]c2cc(F)ccc12)[C@@H](C)OC` [MM] gave a Kd at XIAP BIR-3 of 1000 to 10000 nM.

Regarding `CCNCC(=O)N[C@H](C(=O)N1CCC[C@H]1Cc1c[nH]c2ncccc12)C(C)(C)C` [N], the Kd at XIAP BIR-3 fell in the range of 1000 to 10000 nM. `CN[C@@H](C)C(=O)N[C@H](C(=O)N1CC[C@H](O)[C@H]1Cc1c[nH]c2cc(F)ccc12)[C@@H](C)OC` (relative stereo) [RR, trans-2R—[N-{1-[2-(6-Fluoro-1H-indol-3-ylmethyl)-3-hydroxy-pyrrolidine-1-carbonyl]-2-methoxy-propyl}]-2-methylamino-propionamide] gave a Kd at XIAP BIR-3 of less than 100 nM. Take `CCN[C@@H](C)C(=O)N[C@H](C(=O)N1CC[C@H](OC)[C@H]1Cc1c[nH]c2ncccc12)C(C)C` [II]: the Kd on XIAP BIR-3 was in the range of 1000 to 10000 nM. As to `CN[C@@H](C)C(=O)N[C@H](C(=O)N1CCC[C@H]1Cc1c(-c2ccccc2)n(C)c2ncccc12)[C@@H](C)OC` [Y], the Kd at XIAP BIR-3 is less than 100 nM.

`CCN[C@@H](C)C(=O)N[C@H](C(=O)N1CC[C@H](C)[C@H]1Cc1c[nH]c2cc(F)ccc12)[C@@H](C)O` [QQ]: the Kd at XIAP BIR-3 was greater than 10000 nM. With `CN[C@@H](C)C(=O)N[C@H](C(=O)N1CCC[C@H]1Cc1c[nH]c2c1ccc[n+]2[O-])[C@@H](C)OC` [P], the Kd on XIAP BIR-3 is less than 100 nM. The molecule `CN[C@@H](C)C(=O)N[C@H](C(=O)N1CC[C@H](C)[C@H]1Cc1c[nH]c2cc(F)ccc12)[C@@H](C)O` [NN] showed a dissociation constant (Kd) at XIAP BIR-3 of 1000 to 10000 nM. At XIAP BIR-3, `CCN[C@@H](C)C(=O)N[C@H](C(=O)N1CC[C@H](OC)[C@H]1Cc1c(Cl)[nH]c2cc(F)ccc12)[C@@H](C)OC` [R′] had a Kd greater than 100 nM. Molecule `CN[C@@H](CO)C(=O)N[C@H](C(=O)N1CC[C@H](OC)[C@H]1Cc1c(Cl)[nH]c2cc(F)ccc12)[C@@H](C)OC` [S′] gave a Kd at XIAP BIR-3 of 1000 to 10000 nM. Consider `CC[C@H](NC)C(=O)N[C@H](C(=O)N1CCC[C@H]1Cc1cn(C)c2ncccc12)[C@@H](C)OC` [T], for which the Kd on XIAP BIR-3 was less than 100 nM. The same measure, in the same setting: the value for `CN[C@@H](C)C(=O)N[C@H](C(=O)N1CC[C@@H](O)[C@H]1Cc1c[nH]c2ccccc12)[C@@H](C)O` [FF′] was less than 100 nM. `CCNCC(=O)N[C@H](C(=O)N1CCC[C@H]1Cc1c[nH]c2ncccc12)[C@@H](C)OC` [I] registered a Kd on XIAP BIR-3 greater than 100 nM. With `CCN[C@@H](CC)C(=O)N[C@H](C(=O)N1CCC[C@H]1Cc1c[nH]c2ncccc12)[C@@H](C)OC` [G], at XIAP BIR-3, the dissociation constant Kd was less than 100 nM.

At XIAP BIR-3, `CCN[C@@H](C)C(=O)N[C@H](C(=O)N1CC[C@H](OC)[C@H]1Cc1cn(C)c2cc(F)ccc12)[C@@H](C)OC` [A′] gave a Kd greater than 100 nM. Regarding `CN[C@@H](C)C(=O)N[C@H](C(=O)N1CC[C@@H](O)[C@H]1Cc1c(-c2ccc(F)cc2)[nH]c2ccccc12)C1CCCCC1` [KKK], at XIAP BIR-3, the Kd was greater than 100 nM.

On to `CN[C@@H](C)C(=O)N[C@H](C(=O)N1CCC[C@H]1Cc1c[nH]c2ncccc12)C(C)(C)C` [E], for which the dissociation constant Kd at XIAP BIR-3 is less than 100 nM.

`CCN[C@@H](CC)C(=O)N[C@H](C(=O)N1CCC[C@H]1Cc1c[nH]c2c1ccc[n+]2[O-])[C@@H](C)OC` [Compound R] showed a Kd on XIAP BIR-3 greater than 100 nM. Take `CC[C@H](NC)C(=O)N[C@H](C(=O)N1CC[C@H](C)[C@H]1Cc1c[nH]c2cc(F)ccc12)[C@@H](C)OC` [KK]: the Kd on XIAP BIR-3 was greater than 10000 nM. In the case of `CCN[C@@H](C)C(=O)N[C@H](C(=O)N1CC[C@H](O)[C@H]1Cc1cn(C)c2cc(F)ccc12)[C@@H](C)OC` [ZZ], on XIAP BIR-3, the Kd was less than 100 nM. Still for that read-out and setting: for `CN[C@@H](C)C(=O)N[C@H](C(=O)N1CCC[C@H]1Cc1c[nH]c2c1ccc[n+]2[O-])C(C)(C)C` [S] the value was less than 100 nM; for `CCN[C@@H](C)C(=O)N[C@H](C(=O)N1CC[C@H](OC)[C@H]1Cc1c[nH]c2ncccc12)[C@@H](C)OC` [HH], 1000 to 10000 nM. On to `CN[C@@H](C)C(=O)N[C@H](C(=O)N1CC[C@H](OC)[C@H]1Cc1c(Cl)[nH]c2cc(F)ccc12)[C@@H](C)OC` [P′], for which the Kd at XIAP BIR-3 is less than 100 nM.

For `CC[C@H](NC)C(=O)N[C@H](C(=O)N1C[C@@H](O)C[C@H]1Cc1c[nH]c2ncccc12)C1CCCCC1` [B], the Kd on XIAP BIR-3 was less than 100 nM.

`CCN[C@@H](C)C(=O)N[C@H](C(=O)N1CC[C@H](OC)[C@H]1Cc1c[nH]c2ncccc12)C(C)(C)C` [GG] registered a Kd on XIAP BIR-3 of 1000 to 10000 nM. For `CN[C@@H](C)C(=O)N[C@H](C(=O)N1CC[C@H](OC)[C@H]1Cc1c(Cl)[nH]c2cc(F)ccc12)[C@@H](C)O` [N′], at XIAP BIR-3, the dissociation constant (Kd) is greater than 100 nM.

Molecule `CN[C@@H](CO)C(=O)N[C@H](C(=O)N1CCC[C@H]1Cc1c[nH]c2ncccc12)C(C)(C)C` [O] returned a Kd on XIAP BIR-3 of less than 100 nM. Still for that read-out and setting: for `CN[C@@H](CO)C(=O)N[C@H](C(=O)N1CC[C@H](C)[C@H]1Cc1c[nH]c2cc(F)ccc12)[C@@H](C)O` [PP] the value was greater than 10000 nM. With `CC[C@H](NC)C(=O)N[C@H](C(=O)N1CC[C@H](O)[C@H]1Cc1c[nH]c2cc(F)ccc12)[C@@H](C)OC` [TT], the Kd on XIAP BIR-3 is less than 100 nM. In the case of `CCN[C@@H](C)C(=O)N[C@H](C(=O)N1CC[C@H](OC)[C@H]1Cc1c[nH]c2cc(F)ccc12)[C@@H](C)OC` [G′], the Kd at XIAP BIR-3 is greater than 10000 nM.

Consider `CC[C@H](NC)C(=O)N[C@H](C(=O)N1CC[C@H](OC)[C@H]1Cc1c[nH]c2cc(F)ccc12)[C@@H](C)OC` [D′], for which the Kd on XIAP BIR-3 was greater than 10000 nM. As to `CN[C@@H](C)C(=O)N[C@H](C(=O)N1CCC[C@H]1Cc1c[nH]c2ncccc12)[C@@H](C)OC` [D], on XIAP BIR-3, the Kd was less than 100 nM.
